These results are taken from PubChem BioAssay AID1329 (NMMLSC, 2008).

Calls of active or inactive are those of the source. No rule for the calls is given here.

In the test the target is Induced myeloid leukemia cell differentiation protein Mcl-1 (Homo sapiens) (UniProt Q07820). In words: modulators of Bim peptide binding to Mcl-1, dose response, biochemical, bead-based flow cytometry, multiplexed, human (AID 1329). As to conditions: Bim peptide-Mcl-1 binding, MCF. A general note: Flow cytometry measures light scatter and fluorescence of single cells or particles in a stream.
Sequence of Induced myeloid leukemia cell differentiation protein Mcl-1 (Homo sapiens) (Q07820 whole entry, looked up): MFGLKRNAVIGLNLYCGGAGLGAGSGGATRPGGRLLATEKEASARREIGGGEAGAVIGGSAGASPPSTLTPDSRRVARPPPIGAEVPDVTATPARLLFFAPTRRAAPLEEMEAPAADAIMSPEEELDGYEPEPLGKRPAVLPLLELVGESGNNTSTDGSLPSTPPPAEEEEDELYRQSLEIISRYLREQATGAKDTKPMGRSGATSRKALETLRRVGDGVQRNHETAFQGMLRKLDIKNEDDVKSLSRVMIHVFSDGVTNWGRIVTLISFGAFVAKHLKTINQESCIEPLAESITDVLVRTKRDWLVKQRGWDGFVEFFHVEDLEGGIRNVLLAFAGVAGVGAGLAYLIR
`Cc1ccc(-c2cc(-c3ccc4c(c3)OCO4)c(C#N)c(N)n2)o1`: the percent span entry is “inactive”.

With `O=C(NCC1CCCO1)c1ccc2c(=O)n(-c3ccc(F)cc3)c(=S)[nH]c2c1` (stereo unspecified), the percent span result is “inactive”.

Turning to `COc1cc2c(cc1OC)C(c1ccccc1F)OC(=O)C2` (stereo unspecified), the percent span result was “inactive”.

With `COc1cc(NC(=O)c2ccc3c(c2)OCO3)ccc1NC(=O)c1ccco1`, the percent span entry is “inactive”.

Take `COc1ccc2nc(C)cc(SCC(=O)N/N=C/c3ccc(O)cc3O)c2c1`: the percent span entry is “inactive”.

Consider `COc1ccc(CN(C)CC(=O)NC(C)c2ccccc2)c(OC)c1` (stereo unspecified), for which the percent span entry is “inactive”.

In the case of `COc1ccc(C2(NC(C)=O)CCN(C(=O)c3ccco3)CC2)cc1`, the percent span entry was “inactive”.

Consider `O=C(NC1=C(Nc2ccc(F)cc2)C(=O)c2ccccc2C1=O)c1ccc(Cl)cc1`, for which the percent span entry is “inactive”.

With `CC(C)n1nnnc1SCC(=O)N1CCN(C(=O)c2ccco2)CC1`, the percent span result was “inactive”.

On to `O=[N+]([O-])c1cccc(S(=O)(=O)NCC2CCCO2)c1` (stereo unspecified), for which the percent span entry is “inactive”.

In the case of `O=C(NC1=C(NC2CCS(=O)(=O)C2)C(=O)c2ccccc2C1=O)c1ccccc1` (stereo unspecified), the percent span entry is “inactive”.

As for `CCOc1ccccc1-n1c(=O)c2ccccc2c2ccccc2c1=O`, the percent span result was “inactive”.

In the case of `O=C1Nc2ccc([N+](=O)[O-])cc2OC1CCN1CCN(Cc2ccc3c(c2)OCO3)CC1` (stereo unspecified), the percent span result was “inactive”.

Regarding `Cc1noc(C)c1COc1ccc(C(=O)Nc2cccnc2)cc1`, the percent span entry is “inactive”.

Take `COc1ccc(N2C(=O)/C(=C/c3cccs3)NC2=S)cc1`: the percent span entry was “inactive”.

On to `COc1cc(CNc2ccc(N3CCCC3)cc2)cc(Cl)c1OC`, for which the percent span entry was “inactive”.

In the case of `O=C(COc1ccccc1)N1CCN(c2ncnc3c2cnn3-c2ccccc2)CC1`, the percent span result is “inactive”.

Regarding `CN(C)/C=C/C(=O)c1ccc(C(F)(F)F)cc1F`, the percent span entry is “inactive”.

As for `CCOc1ccc(NCc2ccccc2OCc2cccc(F)c2)cc1`, the percent span result was “inactive”.

As for `COc1ccc(-c2noc(COc3ccc4c(c3)OCO4)n2)cc1OC`, the percent span entry is “inactive”.

With `CCOc1cc(S(=O)(=O)N2CCCCC2)ccc1F`, the percent span entry is “inactive”.

As for `CCOC(=O)c1sc(NC(=O)c2ccncc2)c(C#N)c1C`, the percent span result was “inactive”.

For the compound `Cn1cc(CN2C[C@]3(C)C[C@H]2CC(C)(C)C3)c(-c2ccc3c(c2)OCCO3)n1`, the percent span result was “inactive”.

Consider `Cc1cc(N/C(=N/S(=O)(=O)c2cc(F)ccc2F)c2ccccc2)n(-c2ccccc2)n1`, for which the percent span result was “inactive”.

On to `CCOC(=O)c1ccc(NC(=O)CSCCC(=O)O)cc1`, for which the percent span result was “inactive”.

On to `CCOc1ncccc1C(=O)OC(C)C(=O)Nc1ccc(CC)cc1` (stereo unspecified), for which the percent span result is “inactive”.

Regarding `Cc1cc(-c2csc(N)n2)c(C)n1CCC(C)C`, the percent span result was “inactive”.

Turning to `Fc1ccccc1/C=C1\CCCC2=C1NC(=S)NC2c1ccccc1F` (stereo unspecified), the percent span entry is “inactive”.

For the compound `CCC(=O)OCCNc1cc(Sc2nccn2C)c2nonc2c1[N+](=O)[O-]`, the percent span result was “inactive”.

Consider `CCOc1ccc(C2=Nn3c(nnc3-c3ccco3)SC2)cc1`, for which the percent span result was “inactive”.

Consider `C1=CC2c3ccccc3NC(c3ccncc3)C2C1` (stereo unspecified), for which the percent span result is “inactive”.

Consider `Cc1ccccc1-n1c(SCc2cccc(F)c2)nc2[nH]ncc2c1=O`, for which the percent span entry is “inactive”.

As to `CC(=O)NC1=C(NC2CCS(=O)(=O)C2)C(=O)c2ccccc2C1=O` (stereo unspecified), the percent span result is “inactive”.

With `O=C1NC(=O)C2(Cc3c(nc4ccccn4c3=O)N3CCCCCC32)C(=O)N1Cc1ccccc1` (stereo unspecified), the percent span entry was “inactive”.

Consider `COc1cc(N=c2ssnc2Cl)cc(OC)c1OC`, for which the percent span result was “inactive”.

As to `Cn1cccc1CC(=O)N/N=C\c1ccccc1`, the percent span result was “inactive”.

As to `O=C(N/N=C/c1cccnc1)c1cccc(S(=O)(=O)N2CCCC2)c1`, the percent span entry is “inactive”.

With `CCOC(=O)c1nn(-c2ccccc2)c(C#N)c1N`, the percent span entry was “inactive”.

For the compound `O=C(Cc1ccccc1)N/N=C/c1cccn1-c1ccc([N+](=O)[O-])cc1`, the percent span entry was “inactive”.

Take `O=C(Nc1ccncc1)c1cc2ccccc2o1`: the percent span result was “inactive”.

For the compound `O=C(N/N=C/c1ccc(O)c(O)c1O)/C(=C/c1ccc([N+](=O)[O-])cc1)NC(=O)c1ccccc1`, the percent span entry was “inactive”.

For the compound `S=C(Nc1ccccc1)N1CCn2cccc2C1c1cccnc1` (stereo unspecified), the percent span entry was “inactive”.

As for `COc1ccc(OCCNC(=O)c2ccccc2OCC(=O)N2CCCCC2)cc1`, the percent span entry is “inactive”.

As for `CSc1ccccc1NC(=O)CN(C)CC(=O)Nc1ccc(N2CCOCC2)cc1`, the percent span entry is “inactive”.

Regarding `Cc1ccc(-c2nc3c(c(=O)[nH]c(=O)n3Cc3ccccc3)n2C)o1`, the percent span entry is “inactive”.

As to `CC(=O)Nc1ccc2nc(CN3CCN(CC(C)C)C(CCO)C3)ccc2c1` (stereo unspecified), the percent span result was “inactive”.

As to `Cc1ccc(C(=O)CCC(=O)Nc2ccc(Cl)c(S(=O)(=O)Nc3cccc(Cl)c3)c2)cc1`, the percent span entry was “inactive”.

Take `CC(C)=C1C(=O)NN(c2ccc(C)c(Cl)c2)C1=O`: the percent span entry was “inactive”.

In the case of `Cc1csc(SCCn2c(N3CCN(c4ccccc4)CC3)nc3c2c(=O)[nH]c(=O)n3C)n1`, the percent span result was “inactive”.

`COC(=O)c1cc(OC)c(OC)cc1NC(=O)Nc1cccc(C(C)=O)c1`: the percent span entry was “inactive”.

Regarding `Cc1cc(C(=O)NCCCN(C)C)c2ccccc2n1`, the percent span result is “inactive”.

For the compound `CCOC(=O)/C(=C\c1ccc(Cl)cc1)c1nc2sc(C)c(C)c2c(=O)[nH]1`, the percent span result was “inactive”.

For `Cc1ccc(S(=O)(=O)N2CCCCC2)cc1NC(=O)COC(=O)c1ccccc1F`, the percent span entry is “inactive”.

Consider `CCCCOC(=O)c1nc(Cl)c(Cl)c(N)c1Cl`, for which the percent span result was “inactive”.

Regarding `O=C1c2ccccc2C(=O)N1c1cccc2cccnc12`, the percent span entry was “inactive”.

For the compound `Cc1sc(NC(=O)Cn2cnnn2)nc1-c1ccc(Cl)cc1`, the percent span entry is “inactive”.

Take `Cc1nnc(Sc2cc(NCCCO)c([N+](=O)[O-])c3nonc23)s1`: the percent span result was “inactive”.

Take `O=C(Nc1nnc(SCc2ccccn2)s1)C1CC(=O)N(c2ccccc2)C1` (stereo unspecified): the percent span entry was “inactive”.

Take `COc1c(C)cc(Br)cc1C(=O)Nc1ccc(S(N)(=O)=O)cc1`: the percent span result is “inactive”.

Take `Clc1ccc2c(N/N=C/c3ccccc3Br)ccnc2c1`: the percent span entry was “inactive”.

Turning to `O=C1NC(=S)S/C1=C/c1ccc(N2CCOCC2)o1`, the percent span result is “inactive”.

Consider `CC(=O)c1ccc(NC(=O)c2ccc3nc(-c4ccco4)c(-c4ccco4)nc3c2)cc1`, for which the percent span result is “inactive”.

Turning to `COc1ccc(C2CN(C)CC2C(=O)c2ccc(F)cc2)cc1Cl` (stereo unspecified), the percent span result was “inactive”.

For the compound `COc1ccc(CCNC(=O)c2ccc3nc(-c4ccco4)c(-c4ccco4)nc3c2)cc1OC`, the percent span result is “inactive”.

Take `Cc1ccccc1-c1nc(-c2ccc(NC(=O)c3ccc4c(c3)OCO4)cc2)no1`: the percent span result was “inactive”.

As to `COc1ccc(OC)c(-n2c(-c3ccc(C)cc3)n[nH]c2=S)c1`, the percent span result was “inactive”.
